From ChEMBL document CHEMBL5131435, “Boronic acid derivative activates pyruvate kinase M2 indispensable for redox metabolism in oral cancer cells” (Bioorg Med Chem Lett, 2022)
Activity calls are given as the source filed them. No cut-off for these calls is given here.

Assays:
Type in all cases: cell-based
Pyruvate kinase PKM [1] = biological target: T1, Pyruvate kinase PKM (Homo sapiens, UniProt P14618); assay: Activation of PKM2 in human CAL-27 cells assessed as decrease in GSH level at 12.5 to 50 nM; details: filed as activator, dose 12.5-50 nM
Target sequence in this assay (P14618 2-531 limits assumed): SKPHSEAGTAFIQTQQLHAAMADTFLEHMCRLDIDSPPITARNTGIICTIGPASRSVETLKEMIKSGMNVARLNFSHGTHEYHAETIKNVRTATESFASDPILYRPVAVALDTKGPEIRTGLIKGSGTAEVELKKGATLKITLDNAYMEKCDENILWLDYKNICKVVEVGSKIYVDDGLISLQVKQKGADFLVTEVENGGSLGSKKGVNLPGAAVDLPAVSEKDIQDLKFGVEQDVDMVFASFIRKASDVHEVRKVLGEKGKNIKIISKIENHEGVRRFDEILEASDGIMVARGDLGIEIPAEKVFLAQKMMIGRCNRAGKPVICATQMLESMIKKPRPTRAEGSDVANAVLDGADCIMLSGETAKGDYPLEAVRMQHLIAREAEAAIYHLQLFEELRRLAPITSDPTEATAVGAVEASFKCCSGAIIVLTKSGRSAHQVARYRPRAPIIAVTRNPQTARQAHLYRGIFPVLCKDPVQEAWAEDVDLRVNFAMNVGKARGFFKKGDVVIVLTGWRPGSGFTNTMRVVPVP

Pyruvate kinase PKM [2] = biological target: T1, Pyruvate kinase PKM; assay: Activation of PKM2 in human CAL-27 cells measured after 3 hrs
Pyruvate kinase PKM [3] = biological target: T1, Pyruvate kinase PKM; assay: Activation of PKM2 in human CAL-27 cells assessed as decrease in NADP+/NADPH ratio at 12.5 to 50 nM; details: filed as activator, dose 12.5-50 nM
Target sequence in this assay (P14618 2-531 limits assumed): as above

Pyruvate kinase PKM [4] = biological target: T1, Pyruvate kinase PKM; assay: Activation of PKM2 in human CAL-27 cells assessed as increased in TPI1 activity at 12.5 to 50 nM measured after 3 hrs; details: filed as activator, dose 12.5-50 nM
Target sequence in this assay (P14618 2-531 limits assumed): as above

Pyruvate kinase PKM [5] = biological target: T1, Pyruvate kinase PKM; assay: Activation of PKM2 in human CAL-27 cells assessed as decrease in lactate levels at 12.5 to 50 nM; details: filed as activator, dose 12.5-50 nM
Target sequence in this assay (P14618 2-531 limits assumed): as above

Pyruvate kinase PKM [6] = biological target: T1, Pyruvate kinase PKM; assay: Activation of PKM2 in human CAL-27 cells assessed as decrease in GSH level at 52 nM; details: filed as activator
Target sequence in this assay (P14618 2-531 limits assumed): as above

Pyruvate kinase PKM [7] = biological target: T1, Pyruvate kinase PKM; assay: Activation of PKM2 in human CAL-27 cells assessed as increased in TPI1 activity at 52 nM measured after 3 hrs; details: filed as activator
Target sequence in this assay (P14618 2-531 limits assumed): as above

Row | Compound | Activity (Pyruvate kinase PKM [1]) | AC50 (Pyruvate kinase PKM [2]) [µM] | Activity (Pyruvate kinase PKM [2]; filed as activator, dose 10-100 nM, DDE = dose-dependent effect) | Activity (Pyruvate kinase PKM [3]) | Activity (Pyruvate kinase PKM [4]) | Activity (Pyruvate kinase PKM [5]) | Activity (Pyruvate kinase PKM [6]) | Activity (Pyruvate kinase PKM [7])
1 | CCOC(=O)/C(=C\c1ccc(B(O)O)cc1)C(=O)c1sc(Nc2ccc(Cl)cc2)nc1N(C)C | Active | 0.05 | Dde | Active | Active | Active |  | 
2 | Nc1cccc(S(=O)(=O)N2CCCN(S(=O)(=O)c3ccc4c(c3)OCCO4)CC2)c1 |  | 0.052 |  |  |  |  | Active | Active
